Data from patent US8426345B2, “Method of drug design” (Alchemia Limited, priority 2005, dated 2013).

Molecular target: T1, Human SST5 somatostatin receptor (Homo sapiens, UniProt P35346)
T1 construct: expressed in transfected cells; host or cells: HEK-293 EBNA cells (membranes)
Experiment: Filter plate radio-ligand binding assay for SST5 receptor ([125I]SST-14 displacement)
Settings: 3P library; for % SST5 radio-ligand binding displaced at conc 0.25: conc 0.25 μM; for % SST5 radio-ligand binding displaced at conc 1.0: conc 1.0 μM; for % SST5 radio-ligand binding displaced at conc 50: conc 50 μM; for % SST5 radio-ligand binding displaced at conc 250: conc 250 μM; for % SST5 radio-ligand binding displaced at conc 500: conc 500 μM

T1 sequence (P35346 whole entry): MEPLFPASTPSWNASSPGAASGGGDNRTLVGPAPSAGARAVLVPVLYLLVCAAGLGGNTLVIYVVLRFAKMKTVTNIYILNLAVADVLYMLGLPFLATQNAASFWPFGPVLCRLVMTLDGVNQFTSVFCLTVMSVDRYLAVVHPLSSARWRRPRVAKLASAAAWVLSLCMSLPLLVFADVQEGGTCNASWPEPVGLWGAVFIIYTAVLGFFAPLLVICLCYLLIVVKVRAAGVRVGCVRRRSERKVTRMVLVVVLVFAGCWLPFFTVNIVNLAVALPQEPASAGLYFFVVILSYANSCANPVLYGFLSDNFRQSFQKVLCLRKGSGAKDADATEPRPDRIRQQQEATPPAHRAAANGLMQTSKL

Row | Compound | % SST5 radio-ligand binding displaced at conc 0.25 | % SST5 radio-ligand binding displaced at conc 1.0 | % SST5 radio-ligand binding displaced at conc 50 | % SST5 radio-ligand binding displaced at conc 250 | % SST5 radio-ligand binding displaced at conc 500
1 | NCCCC(=O)N[C@H]1[C@@H](OCc2ccc3ccccc3c2)O[C@H](COCc2ccccc2)[C@@H](O)[C@@H]1OCc1ccc(Cl)cc1 [Compound 136] | − (% SST5 radio-ligand binding displaced at cone (μM) −<40%) | ++ (% SST5 radio-ligand binding displaced at conc (μM) >60%) |  |  | 
2 | NCCCC(=O)N[C@H]1[C@@H](OCc2ccc3ccccc3c2)O[C@H](COCc2ccc(Cl)cc2)[C@@H](O)[C@@H]1OCc1ccc(Cl)cc1 [Compound 137] | − (% SST5 radio-ligand binding displaced at cone (μM) −<40%) | ++ (% SST5 radio-ligand binding displaced at conc (μM) >60%) |  |  | 
3 | COC[C@H]1O[C@H](OCc2ccc3ccccc3c2)[C@H](NC(=O)C(N)CCN)[C@@H](OCc2ccc3ccccc3c2)[C@@H]1O (some centres unmarked) [Compound 138] | − (% SST5 radio-ligand binding displaced at cone (μM) −<40%) | − (% SST5 radio-ligand binding displaced at cone (μM) −<40%) |  |  | 
4 | CNCCCC(=O)N[C@H]1[C@@H](OCc2ccc3ccccc3c2)O[C@H](COC)[C@@H](O)[C@@H]1OCc1ccc2ccccc2c1 [Compound 139] | − (% SST5 radio-ligand binding displaced at cone (μM) −<40%) | + (% SST5 radio-ligand binding displaced at cone (μM) 60>+>40%) |  |  | 
5 | COC[C@H]1O[C@H](OCc2ccc3ccccc3c2)[C@H](NC(=O)CCC(C)N)[C@@H](OCc2ccc3ccccc3c2)[C@@H]1O (some centres unmarked) [Compound 140] | ++ (% SST5 radio-ligand binding displaced at conc (μM) >60%) | ++ (% SST5 radio-ligand binding displaced at conc (μM) >60%) |  |  | 
6 | COC[C@H]1O[C@H](OCc2ccc3ccccc3c2)[C@H](NC(=O)CCCN(C)C)[C@@H](OCc2ccc3ccccc3c2)[C@@H]1O [Compound 141] | − (% SST5 radio-ligand binding displaced at cone (μM) −<40%) | − (% SST5 radio-ligand binding displaced at cone (μM) −<40%) |  |  | 
7 | COC[C@H]1O[C@H](OCc2ccc3ccccc3c2)[C@H](NC(=O)CCCN2CCCC2)[C@@H](OCc2ccc3ccccc3c2)[C@@H]1O [Compound 143] | − (% SST5 radio-ligand binding displaced at cone (μM) −<40%) | − (% SST5 radio-ligand binding displaced at cone (μM) −<40%) |  |  | 
8 | COC[C@H]1O[C@H](OCc2ccc3ccccc3c2)[C@H](NC(=O)CCCN)[C@@H](OCc2cccc(Cl)c2)[C@@H]1O [Compound 144] | + (% SST5 radio-ligand binding displaced at cone (μM) 60>+>40%) | ++ (% SST5 radio-ligand binding displaced at conc (μM) >60%) |  |  | 
9 | COC[C@H]1O[C@H](OCc2ccc3ccccc3c2)[C@H](NC(=O)CCCN)[C@@H](OCc2cc(Cl)ccc2Cl)[C@@H]1O [Compound 145] | + (% SST5 radio-ligand binding displaced at cone (μM) 60>+>40%) | ++ (% SST5 radio-ligand binding displaced at conc (μM) >60%) |  |  | 
10 | COC[C@H]1O[C@H](OCc2ccc3ccccc3c2)[C@H](NC(=O)CCCN)[C@@H](OCc2ccccc2Cl)[C@@H]1O [Compound 146] | − (% SST5 radio-ligand binding displaced at cone (μM) −<40%) | ++ (% SST5 radio-ligand binding displaced at conc (μM) >60%) |  |  | 
11 | COC[C@H]1O[C@H](OCc2ccc3ccccc3c2)[C@H](NC(=O)CCCN)[C@@H](OCc2cccc3cccnc23)[C@@H]1O [Compound 147] | + (% SST5 radio-ligand binding displaced at cone (μM) 60>+>40%) | ++ (% SST5 radio-ligand binding displaced at conc (μM) >60%) |  |  | 
12 | COC[C@H]1O[C@H](OCc2ccc3ccccc3c2)[C@H](NC(=O)CCCN)[C@@H](OCc2nc3ccccc3s2)[C@@H]1O [Compound 148] | − (% SST5 radio-ligand binding displaced at cone (μM) −<40%) | − (% SST5 radio-ligand binding displaced at cone (μM) −<40%) |  |  | 
13 | COC[C@H]1O[C@H](OCc2ccc3ccccc3c2)[C@H](NC(=O)CCCN)[C@@H](OCc2nccc3ccccc23)[C@@H]1O [Compound 149] | − (% SST5 radio-ligand binding displaced at cone (μM) −<40%) | + (% SST5 radio-ligand binding displaced at cone (μM) 60>+>40%) |  |  | 
14 | COC[C@H]1O[C@H](OCc2ccc3ccccc3c2)[C@H](NC(=O)CCCN)[C@@H](OCc2ccc(Cl)c(Cl)c2)[C@@H]1O [Compound 150] | ++ (% SST5 radio-ligand binding displaced at conc (μM) >60%) | ++ (% SST5 radio-ligand binding displaced at conc (μM) >60%) |  |  | 
15 | COC[C@H]1O[C@H](OCc2ccc3ccccc3c2)[C@H](NC(=O)CCCN)[C@@H](OCc2cccc3ccccc23)[C@@H]1O [Compound 151] | + (% SST5 radio-ligand binding displaced at cone (μM) 60>+>40%) | ++ (% SST5 radio-ligand binding displaced at conc (μM) >60%) |  |  | 
16 | COC[C@H]1O[C@H](OCc2ccc3ccccc3c2)[C@H](NC(=O)CCCN)[C@@H](OCc2ccc(Cl)cc2Cl)[C@@H]1O [Compound 152] | + (% SST5 radio-ligand binding displaced at cone (μM) 60>+>40%) | ++ (% SST5 radio-ligand binding displaced at conc (μM) >60%) |  |  | 
17 | COC[C@H]1O[C@H](OCc2ccc3ccccc3c2)[C@H](NC(=O)CCCN)[C@@H](OCc2ccc3ccccc3n2)[C@@H]1O [Compound 153] | ++ (% SST5 radio-ligand binding displaced at conc (μM) >60%) | ++ (% SST5 radio-ligand binding displaced at conc (μM) >60%) |  |  | 
18 | COC[C@H]1O[C@H](OCc2ccc3ccccc3c2)[C@H](NC(=O)CCCN)[C@@H](OCc2cccc(Cl)c2Cl)[C@@H]1O [Compound 154] | ++ (% SST5 radio-ligand binding displaced at conc (μM) >60%) | ++ (% SST5 radio-ligand binding displaced at conc (μM) >60%) |  |  | 
19 | COC[C@H]1O[C@H](OCc2ccc3ccccc3c2)[C@H](NC(=O)CCCN)[C@@H](OCc2ccc(Oc3ccccc3)cc2)[C@@H]1O [Compound 155] | ++ (% SST5 radio-ligand binding displaced at conc (μM) >60%) | ++ (% SST5 radio-ligand binding displaced at conc (μM) >60%) |  |  | 
20 | COC[C@H]1O[C@H](OCc2ccc(Cl)cc2)[C@H](NC(=O)CN)[C@@H](OC)[C@@H]1O [Compound 156] |  |  | − (% SST5 radio-ligand binding displaced at cone (μM) −<40%) | − (% SST5 radio-ligand binding displaced at cone (μM) −<40%) | − (% SST5 radio-ligand binding displaced at cone (μM) −<40%)
21 | COC[C@H]1O[C@@H](OCc2ccc(Cl)cc2)[C@H](NC(=O)CN)[C@@H](OC)[C@@H]1O [Compound 157] |  |  | − (% SST5 radio-ligand binding displaced at cone (μM) −<40%) | − (% SST5 radio-ligand binding displaced at cone (μM) −<40%) | − (% SST5 radio-ligand binding displaced at cone (μM) −<40%)
22 | COC[C@H]1O[C@H](OCc2ccc(Cl)cc2)[C@H](NC(=O)CN)[C@H](OC)[C@@H]1O [Compound 158] |  |  | − (% SST5 radio-ligand binding displaced at cone (μM) −<40%) | − (% SST5 radio-ligand binding displaced at cone (μM) −<40%) | − (% SST5 radio-ligand binding displaced at cone (μM) −<40%)
23 | COC[C@H]1O[C@@H](OCc2ccc(Cl)cc2)[C@H](NC(=O)CN)[C@H](OC)[C@@H]1O [Compound 159] |  |  | − (% SST5 radio-ligand binding displaced at cone (μM) −<40%) | − (% SST5 radio-ligand binding displaced at cone (μM) −<40%) | − (% SST5 radio-ligand binding displaced at cone (μM) −<40%)
